# Reference: paper PMC7730235, “Discovery of a Novel Class of Covalent Dual Inhibitors Targeting the Protein Kinases BMX and BTK” (International Journal of Molecular Sciences, 2020)
# Experiments:
# kinase domain of BMX [1] = biological target: T1, kinase domain of BMX (Homo sapiens, UniProt P51813); experiment: Thermal shift (ΔTm) assay; assay type: binding; conditions: 2 μM kinase domain, 10 μM inhibitor; mean ± SD of at least three measurements
# T1 construct: The kinase domains of JAK3 and BMX at 2 μM
# Protocol: (§1) The kinase domains of JAK3 and BMX at 2 μM were mixed with the inhibitors at 10 μM, and subsequently SyPRO orange dye (Invitrogen Carlsbad, CA, USA) was added. The thermal shift assay and data evaluation were performed as described previously using a Real-Time PCR Mx3005p machine (Stratagene, La Jolla, CA, USA).
# kinase domain of JAK3 = biological target: T2, kinase domain of JAK3 (Homo sapiens, UniProt P52333); experiment: Thermal shift (ΔTm) assay; assay type: binding; conditions: 2 μM kinase domain, 10 μM inhibitor; mean ± SD of at least three measurements
# T2 construct: The kinase domains of JAK3 and BMX at 2 μM; made in house
# Protocol: as §1
# [2] = biological target: T3, Full length BMX (C-terminal NanoLuc fusion) (Homo sapiens, UniProt P51813); experiment: Cellular NanoBRET target engagement assay in HEK293T cells; assay type: cell-based; conditions: 0.5 µM Tracer K4, 2 h incubation
# T3 construct: Full length BMX and BTK was cloned into pFC32K; expressed in transfected cells; host or cells: HEK293T
# T3 sequence (P51813 1-675): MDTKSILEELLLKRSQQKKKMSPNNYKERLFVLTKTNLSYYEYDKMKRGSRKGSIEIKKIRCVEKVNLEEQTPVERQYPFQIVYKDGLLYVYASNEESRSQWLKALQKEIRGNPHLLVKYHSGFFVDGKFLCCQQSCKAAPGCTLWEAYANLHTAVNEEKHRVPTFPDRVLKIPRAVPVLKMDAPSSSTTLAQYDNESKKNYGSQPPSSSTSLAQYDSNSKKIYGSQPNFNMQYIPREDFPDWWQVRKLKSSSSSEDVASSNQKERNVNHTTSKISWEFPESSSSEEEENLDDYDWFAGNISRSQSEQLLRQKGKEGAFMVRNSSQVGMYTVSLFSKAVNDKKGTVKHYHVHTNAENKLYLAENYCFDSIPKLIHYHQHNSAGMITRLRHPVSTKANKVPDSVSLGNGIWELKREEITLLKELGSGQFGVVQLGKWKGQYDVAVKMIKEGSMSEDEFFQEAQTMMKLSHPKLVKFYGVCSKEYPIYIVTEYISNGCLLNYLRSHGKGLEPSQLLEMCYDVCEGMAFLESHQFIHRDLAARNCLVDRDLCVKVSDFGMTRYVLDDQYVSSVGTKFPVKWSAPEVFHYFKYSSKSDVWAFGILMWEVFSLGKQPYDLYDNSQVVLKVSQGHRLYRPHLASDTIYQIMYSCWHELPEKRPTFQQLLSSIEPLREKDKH
# Protocol: (§2) Full length BMX and BTK was cloned into pFC32K (Promega, Madison, WI, USA) for expression of a C-terminal NanoLuc fusion. The plasmids were transfected into HEK293T cells cultured in DMEM (Gibco, Waltham, MA, USA) supplemented with 10% fetal bovine serum (Gibco, Waltham, MA, USA) and Penicillin/Streptamycin (Gibco, Waltham, MA, USA). NanoBRET assays were performed using the protocol published previously. Briefly, after transfection and 20 h incubation cells were harvested and subsequently resuspended in OptiMEM (Gibco, Waltham, MA, USA). Cells were aliquoted onto […] (Greiner, Kremsmünster, Austria), and inhibitors as well as 0.5 µM Tracer K4 (Promega) for BMX or 0.5 µM Tracer K5 (Promega, Madison, WI, USA) for BTK were added using an ECHO acoustic dispenser. The plates were incubated at 37 °C with 5% CO2 for 2 h prior to the addition of both NanoBRET NanoGlo substrate (Promega, Madison, WI, USA) and extracellular NanoLuc inhibitor. BRET luminescence (450 nm for donor emission and 610 nm for BRET signal) was measured using PHERAstar FSX plate reader (BMG Labtech, Ortenberg, Germany). Milli-BRET units (mBU) were calculated as a ratio between BRET signal and the overall measured luminescence. A dose–response fitting was applied and IC50 values were calculated using the Prism software. […] Experiments were performed as tripicates and repeated at least three times.
# [3] = biological target: T4, Full length BTK (C-terminal NanoLuc fusion) (Homo sapiens, UniProt Q06187); experiment: as above; assay type: cell-based; conditions: 0.5 µM Tracer K5, 2 h incubation
# T4 construct: Full length BMX and BTK was cloned into pFC32K; expressed in transfected cells; host or cells: HEK293T
# T4 sequence (Q06187 whole entry, the tested form may be a part): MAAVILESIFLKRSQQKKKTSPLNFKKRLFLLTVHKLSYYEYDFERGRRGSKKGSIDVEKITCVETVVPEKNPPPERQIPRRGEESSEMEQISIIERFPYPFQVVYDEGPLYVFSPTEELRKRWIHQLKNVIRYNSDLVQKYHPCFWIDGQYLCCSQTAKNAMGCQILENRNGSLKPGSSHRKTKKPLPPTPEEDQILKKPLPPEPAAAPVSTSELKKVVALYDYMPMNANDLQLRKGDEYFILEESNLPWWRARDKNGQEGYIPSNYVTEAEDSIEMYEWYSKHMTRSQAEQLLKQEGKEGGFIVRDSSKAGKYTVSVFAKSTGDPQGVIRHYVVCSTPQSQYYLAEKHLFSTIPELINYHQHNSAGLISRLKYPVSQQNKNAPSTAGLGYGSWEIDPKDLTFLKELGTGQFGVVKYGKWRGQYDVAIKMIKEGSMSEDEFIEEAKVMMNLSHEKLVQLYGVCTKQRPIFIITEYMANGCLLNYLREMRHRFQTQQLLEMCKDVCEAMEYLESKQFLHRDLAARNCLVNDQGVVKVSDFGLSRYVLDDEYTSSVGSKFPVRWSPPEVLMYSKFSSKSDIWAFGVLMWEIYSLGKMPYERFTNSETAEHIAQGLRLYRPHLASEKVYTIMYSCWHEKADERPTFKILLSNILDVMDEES
# Protocol: as §2
# kinase domain of BMX [4] = biological target: T1, kinase domain of BMX; experiment: Mass spectrometric investigation of covalent binding to BMX (ESI-TOF); conditions: 4 °C; for covalent labeling of BMX (in words): 1.5-fold molar excess, complete labeling refers to 30 min
# Protocol: The kinase domain of BMX was diluted to 0.05 mM with buffer containing 20 mM Tris pH 8.0, 200 mM NaCl, 0.5 mM TCEP (pH 7.0) and was subsequently mixed with 0.075 mM inhibitors (ratio of protein to inhibitor of 1:1.5). The mixture was incubated at 4°C. The samples were taken at different time points, the reaction stopped by diluting the sample with a 200-fold excess of 1% formic acid. The denatured protein and the adducts were assessed using electrospray time-of-flight (ESI-TOF) mass spectrometry.
# JAK3 = biological target: T5, JAK3 (Homo sapiens, UniProt P52333); experiment: Radiometric kinase assay (Reaction Biology HotSpot); assay type: biochemical; conditions: for JAK3 IC50 of nonreactive analogs (not shown): in words, data not shown
# T5 construct: purchased Reaction Biology Corporation
# T5 sequence (P52333 1-1124): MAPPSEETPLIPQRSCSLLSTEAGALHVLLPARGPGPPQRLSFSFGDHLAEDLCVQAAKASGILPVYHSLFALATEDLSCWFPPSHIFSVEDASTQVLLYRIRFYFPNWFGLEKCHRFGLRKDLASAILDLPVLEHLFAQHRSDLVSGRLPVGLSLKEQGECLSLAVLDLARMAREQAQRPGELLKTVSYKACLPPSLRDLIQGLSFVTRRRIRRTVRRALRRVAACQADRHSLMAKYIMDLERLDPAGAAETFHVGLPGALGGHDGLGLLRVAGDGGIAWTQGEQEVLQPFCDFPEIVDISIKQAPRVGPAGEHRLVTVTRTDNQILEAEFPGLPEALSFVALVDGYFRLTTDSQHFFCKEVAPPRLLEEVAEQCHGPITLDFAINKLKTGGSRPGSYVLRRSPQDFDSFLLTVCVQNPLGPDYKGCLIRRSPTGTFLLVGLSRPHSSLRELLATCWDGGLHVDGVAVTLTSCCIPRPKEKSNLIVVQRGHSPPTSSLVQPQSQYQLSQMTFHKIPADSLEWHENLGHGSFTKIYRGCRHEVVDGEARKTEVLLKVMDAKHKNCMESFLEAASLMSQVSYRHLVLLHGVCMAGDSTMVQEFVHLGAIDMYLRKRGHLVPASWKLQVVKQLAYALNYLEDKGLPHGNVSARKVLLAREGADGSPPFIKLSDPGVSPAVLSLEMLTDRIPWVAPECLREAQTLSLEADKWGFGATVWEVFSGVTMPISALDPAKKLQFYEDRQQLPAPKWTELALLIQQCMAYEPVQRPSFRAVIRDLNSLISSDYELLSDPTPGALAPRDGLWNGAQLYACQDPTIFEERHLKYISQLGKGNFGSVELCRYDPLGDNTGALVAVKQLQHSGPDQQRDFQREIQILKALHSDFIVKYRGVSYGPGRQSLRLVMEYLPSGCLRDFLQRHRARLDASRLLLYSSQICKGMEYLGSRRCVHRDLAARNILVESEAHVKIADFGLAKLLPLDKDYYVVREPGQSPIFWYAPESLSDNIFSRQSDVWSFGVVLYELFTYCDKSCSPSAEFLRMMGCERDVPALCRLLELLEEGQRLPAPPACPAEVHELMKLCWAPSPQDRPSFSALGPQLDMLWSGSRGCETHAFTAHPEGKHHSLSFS
# Protocol: (§3) If not mentioned differently, in vitro profiling of compounds was performed at Reaction Biology Corporation using the HotSpot™ assay platform.
# BMX = biological target: T6, BMX (Homo sapiens, UniProt P51813); experiment: as above; assay type: biochemical; conditions: radiometric HotSpot, five-dose singlicate, [ATP] = 10 μM
# T6 construct: purchased Reaction Biology Corporation
# T6 sequence (P51813 1-675): T3 sequence (P51813 1-675)
# Protocol: as §3
# [5] = 1.5-fold molar excess of inhibitor, 30 min
# [6] = 1.5-fold molar excess of inhibitor, 60 min
# [7] = 1.5-fold molar excess of inhibitor, 120 min
# [8] = 1.5-fold molar excess of inhibitor, 240 min
compound,measurement,setting,value
"C=CC(=O)Nc1cccc(-c2c[nH]c3ncc(C(=O)NC)cc23)c1 [Compound 11c, 3-(3-acrylamidophenyl)-N-methyl-1H-pyrrolo[2,3-b]pyridine-5-carboxamide]",ΔTm at 10 µM,kinase domain of BMX [1],7.84 ± 0.04 °C
same,ΔTm at 10 µM,kinase domain of JAK3,10.3 ± 0.37 °C
"C=CC(=O)Nc1cccc(-c2c[nH]c3ncc(C(=O)NCC)cc23)c1 [Compound 11d, 3-(3-acrylamidophenyl)-N-ethyl-1H-pyrrolo[2,3-b]pyridine-5-carboxamide]",ΔTm at 10 µM,kinase domain of BMX [1],7.35 ± 0.19 °C
same,ΔTm at 10 µM,kinase domain of JAK3,10.3 ± 0.26 °C
"C=CC(=O)Nc1cccc(-c2c[nH]c3ncc(NC(=O)Cc4ccccc4)cc23)c1 [Compound 12h, N-(3-(5-(2-phenylacetamido)-1H-pyrrolo[2,3-b]pyridin-3-yl)phenyl)acrylamide]",ΔTm at 10 µM,kinase domain of BMX [1],11.9 °C
same,ΔTm at 10 µM,kinase domain of JAK3,12.1 °C
"CCC(=O)Nc1cccc(-c2c[nH]c3ncccc23)c1 [Compound 9b, N-(3-(1H-pyrrolo[2,3-b]pyridin-3-yl)phenyl)propionamide]",IC50,[2],> 10000 nM
same,IC50,[3],9220 ± 3700 nM
same,"native (unmodified) BMX fraction, 30 min",kinase domain of BMX [4]; [5],100%
same,"native (unmodified) BMX fraction, 60 min",kinase domain of BMX [4]; [6],100%
same,"native (unmodified) BMX fraction, 120 min",kinase domain of BMX [4]; [7],100%
same,"native (unmodified) BMX fraction, 240 min",kinase domain of BMX [4]; [8],100%
same,covalent labeling of BMX (in words),kinase domain of BMX [4],no modification was detectable
same,JAK3 IC50 of nonreactive analogs (not shown),JAK3,micromolar range
"C=CC(=O)Nc1cccc(-c2c[nH]c3ncc(NC(=O)c4ccccc4)cc23)c1 [Compound 12e, N-(3-(3-acrylamidophenyl)-1H-pyrrolo[2,3-b]pyridin-5-yl)benzamide]",ΔTm at 10 µM,kinase domain of BMX [1],11.37 ± 0.03 °C
same,ΔTm at 10 µM,kinase domain of JAK3,10.9 ± 0.95 °C
"c1ccc(-c2c[nH]c3ncccc23)cc1 [Compound 9c, 3-phenyl-1H-pyrrolo[2,3-b]pyridine]",JAK3 IC50 of nonreactive analogs (not shown),JAK3,micromolar range
"NC(=O)c1cnc2[nH]cc(-c3ccccc3)c2c1 [Compound 10c, 3-phenyl-1H-pyrrolo[2,3-b]pyridine-5-carboxamide]",JAK3 IC50 of nonreactive analogs (not shown),JAK3,micromolar range
"C=CC(=O)Nc1cccc(-c2c[nH]c3ncc(C(=O)NCC4CC4)cc23)c1 [Compound 11e, 3-(3-acrylamidophenyl)-N-(cyclopropylmethyl)-1H-pyrrolo[2,3-b]pyridine-5-carboxamide]",ΔTm at 10 µM,kinase domain of BMX [1],6.94 ± 0.07 °C
same,ΔTm at 10 µM,kinase domain of JAK3,9.64 ± 0.28 °C
"C=CC(=O)Nc1cccc(-c2c[nH]c3ncc(C(=O)NCc4ccccc4)cc23)c1 [Compound 11g, 3-(3-acrylamidophenyl)-N-benzyl-1H-pyrrolo[2,3-b]pyridine-5-carboxamide]",ΔTm at 10 µM,kinase domain of BMX [1],6.84 ± 0.23 °C
same,ΔTm at 10 µM,kinase domain of JAK3,8.29 ± 1.26 °C
"C=CC(=O)Nc1cccc(-c2c[nH]c3ncc(NC(=O)Cc4cccs4)cc23)c1 [Compound 12i, N-(3-(5-(2-(thiophen-2-yl)acetamido)-1H-pyrrolo[2,3-b]pyridin-3-yl)phenyl)acrylamide]",IC50,[2],17 ± 7 nM
same,IC50,[3],37 ± 10 nM
same,"BMX covalent adduct fraction, 30 min",kinase domain of BMX [4]; [5],100%
same,"BMX covalent adduct fraction, 60 min",kinase domain of BMX [4]; [6],100%
same,"BMX covalent adduct fraction, 120 min",kinase domain of BMX [4]; [7],100%
same,"BMX covalent adduct fraction, 240 min",kinase domain of BMX [4]; [8],100%
same,covalent labeling of BMX (in words),kinase domain of BMX [4],complete labeling
same,IC50,BMX,16 nM
same,ΔTm at 10 µM,kinase domain of BMX [1],11.5 °C
same,ΔTm at 10 µM,kinase domain of JAK3,10.1 °C
"C=CC(=O)Nc1cccc(-c2c[nH]c3ncc(C(=O)NCC4CCCCC4)cc23)c1 [Compound 11f, 3-(3-acrylamidophenyl)-N-(cyclohexylmethyl)-1H-pyrrolo[2,3-b]pyridine-5-carboxamide]",ΔTm at 10 µM,kinase domain of BMX [1],3.68 ± 0.13 °C
same,ΔTm at 10 µM,kinase domain of JAK3,5.54 ± 0.82 °C
"C=CC(=O)Nc1cccc(-c2c[nH]c3ncc(NC(=O)c4ccco4)cc23)c1 [Compound 12d, N-(3-(3-acrylamidophenyl)-1H-pyrrolo[2,3-b]pyridin-5-yl)furan-2-carboxamide]",IC50,BMX,4 nM
same,IC50,"JAK3; radiometric HotSpot, five-dose singlicate, [ATP] = 10 μM",1080 nM
same,ΔTm at 10 µM,kinase domain of BMX [1],10.75 ± 0.09 °C
same,ΔTm at 10 µM,kinase domain of JAK3,9.93 ± 0.12 °C
"C=CC(=O)Nc1cccc(-c2c[nH]c3ncc(NC(C)=O)cc23)c1 [Compound 12f, N-(3-(5-acetamido-1H-pyrrolo[2,3-b]pyridin-3-yl)phenyl)acrylamide]",ΔTm at 10 µM,kinase domain of BMX [1],10.6 ± 0.12 °C
same,ΔTm at 10 µM,kinase domain of JAK3,13.4 ± 0.43 °C
"CCC(=O)Nc1cccc(-c2c[nH]c3ncc(C(N)=O)cc23)c1 [Compound 10b, 3-(3-propionamidophenyl)-1H-pyrrolo[2,3-b]pyridine-5-carboxamide]",IC50,[2],> 10000 nM
same,IC50,[3],> 10000 nM
same,"native (unmodified) BMX fraction, 30 min",kinase domain of BMX [4]; [5],100%
same,"native (unmodified) BMX fraction, 60 min",kinase domain of BMX [4]; [6],100%
same,"native (unmodified) BMX fraction, 120 min",kinase domain of BMX [4]; [7],100%
same,"native (unmodified) BMX fraction, 240 min",kinase domain of BMX [4]; [8],100%
same,covalent labeling of BMX (in words),kinase domain of BMX [4],no modification was detectable
same,JAK3 IC50 of nonreactive analogs (not shown),JAK3,micromolar range
